Reference: US20240109892A1, “POLY(ADP-RIBOSE) GLYCOHYDROLASE (PARG) INHIBITORS AGAINST COVID MACRODOMAIN AND METHODS OF USING THE SAME” (BOARD OF REGENTS, THE UNIVERSITY OF TEXAS SYSTEM, priority 2021, published 2024)
Like-named read-outs stand apart in the source and are kept apart here.

How the values were obtained:
CoV-2 Mac1 [1] = target: T1, CoV-2 Mac1 (Severe acute respiratory syndrome coronavirus 2, UniProt P0DTC1); assay: biochemical; format: binding
CoV-2 Mac1 [2] = target: T1, CoV-2 Mac1; assay: Microscale thermophoresis (MST) binding affinity measurements with CoV-2 Mac1; details: preliminary measurements
[3] = pH 7.5; cited from earlier work

SMILES	binding to the Mac1 domain by ITC (CoV-2 Mac1 [1])	binding to the Mac1 domain by MST (CoV-2 Mac1 [2])	ΔG (CoV-2 Mac1 [1]; ITC, 25° C.)	ΔH (CoV-2 Mac1 [1]; ITC, 25° C.)	−TΔS (CoV-2 Mac1 [1]; ITC, 25° C.)	Kd (CoV-2 Mac1 [1]; ITC, 25° C., 25 mM HEPES pH 7.5, 150 mM NaCl, read-out: Kd)	Kd (CoV-2 Mac1 [1]; read-out: dissociation constant Kd)	pKa of morpholine nitrogen atom [3]
Cn1c(=O)c2[nH]c(SCCCNC(=S)NCCN3CCOCC3)nc2n(C)c1=O [PARG-329]	fails to detect a robust interaction	micromolar affinity	–	–	–	–	–	–
Nc1ncnc2c1ncn2[C@@H]1O[C@H](COP(=O)(O)OP(=O)(O)OC[C@H]2OC(O)[C@H](O)[C@@H]2O)[C@@H](O)[C@H]1O (stereo partly shown) [ADPr, ADP-ribose]	–	–	-6.74 kcal/mol	-9.18 kcal/mol	2.43 kcal/mol	11.6 µM	10 to 12 µM	–
Cn1c(=O)c2[nH]c(SCCC(=O)NS(=O)(=O)CCN3CCOCC3)nc2n(C)c1=O [PARG-345, 3-((1,3-dimethyl-2,6-dioxo-2,3,6,7-tetrahydro-1H-purin-8-yl)thio)-N-((2-morpholinoethyl)sulfonyl)propanamide]	fails to detect a robust interaction	micromolar affinity	–	–	–	–	–	~8.3
